Source: US10683307B2, “Compounds for use in antibacterial applications” (GLAXOSMITHKLINE INTELLECTUAL PROPERTY DEVELOPMENT LIMITED, priority 2015, dated 2020)
Structures can show the parent of a compound that is named as a salt. Where two headings read alike, the source gives them in different places.

Tests used:
Format in all cases: cell-based
Burkholderia cepacia = system: Burkholderia cepacia; parameters: unit not given beside the values; conditions: unit not given
Staphylococcus aureus = system: Staphylococcus aureus
Streptococcus pneumonia = conditions: Streptococcus pneumoniae
Streptococcus pyogenes = system: Streptococcus pyogenes
Yersinia pestis = experiment: microbe, parasite or virus in culture
Bacillus anthracis = experiment: microbe, parasite or virus in culture
Francisella tularensis = experiment: microbe, parasite or virus in culture
[1] = system: Mycobacterium tuberculosis H37Rv; experiment: Mycobacterium Tuberculosis H37Rv Inhibition Assay; conditions: H37Rv strain, Middlebrook 7H9+ADC, resazurin fluorescence; for MIC: H37RV
citrobacter spp = conditions: Table 1 column L = citrobacter spp; unit inferred
Serratia marcescens = conditions: Table 1 column N = Serratia marcescens; unit inferred
Providencia rettgeri = conditions: Table 1 column O = Providencia rettgeri; unit inferred
Streptococcus agalactiae = system: Streptococcus agalactiae
Burkholderia mallei = conditions: Table 3 column D4 = Burkholderia mallei
[2] = system: Burkholderia pseudomallei; conditions: Table 3 column E4 = Burkholderia pseudomallei
Bacteroides fragilis = system: Bacteroides fragilis
Bacteroides caccae = system: Bacteroides caccae
Bacteroides ovatus = system: Bacteroides ovatus
[3] = system: Bacteroides thetaiotamicron
Moraxella catarrhalis = conditions: unit inferred
Enterococcus faecalis = system: Enterococcus faecalis
E. faecium = conditions: G1 = E. faecium
Legionella pneumophila = conditions: Table 1 column G = Legionella pneumophila; unit inferred

COc1cnc2ccc(F)c(CN[C@H]3CC[C@H](NCc4cnc5c(n4)NC(=O)CO5)C[C@H]3O)c2n1.Cl [Compound W, 6-({[(1S,3R,4S)-4-{[(6-fluoro-3-methoxyquinoxalin-5-yl)methyl]amino}-3-hydroxycyclohexyl]amino}methyl)-2H,3H,4H-pyrazino[2,3-b][1,4]oxazin-3-one]
MIC90 (Burkholderia cepacia): ≤16
MIC90 (Staphylococcus aureus): ≤ 0.125 µg/mL
MIC90 (Streptococcus pneumonia): ≤ 0.5 µg/mL
MIC90 (Streptococcus pyogenes): ≤ 0.125 µg/mL
MIC90 (Yersinia pestis; Yersinia pestis): ≤ 0.125 µg/mL
MIC90 (Bacillus anthracis; Bacillus anthracis): ≤ 0.5 µg/mL
MIC90 (Francisella tularensis; Francisella tularensis): ≤ 0.125 µg/mL

COc1cnc2ccc(F)c(CN[C@H]3CC[C@H](NCc4cnc5c(n4)NC(=O)CO5)C[C@H]3O)c2n1.Cl [Compound W, HCl salt, 6-(((1S,3R,4S)-4-((7-Fluoro-2-methoxyquinoxalin-8-yl)methylamino)-3-hydroxycyclohexylamino)methyl)-2H-pyrazino[2,3-b][1,4]oxazin-3(4H)-one Hydrochloride]
MIC [1]: ≤ 0.02 µg/mL

COc1ccc2ccc(=O)n(CCN3C[C@H](CNCc4cnc5c(n4)NC(=O)CS5)[C@H](O)C3)c2n1 [Compound Y, HCl salt, 1-{2-[(3S,4S)-3-hydroxy-4-{[({3-oxo-2H,3H,4H-pyrazino[2,3-b][1,4]thiazin-6-yl}methyl)amino]methyl}pyrrolidin-1-yl]ethyl}-7-methoxy-1,2-dihydro-1,8-naphthyridin-2-one]
MIC [1]: ≤ 0.02 µg/mL

Cn1cc(C(=O)O)c(=O)c2c(CC[C@H]3CC[C@H](NCc4cnc5c(n4)NC(=O)CS5)CC3)c(F)cc(F)c21 [Compound Z, TFA salt, 6,8-difluoro-1-methyl-4-oxo-5-(2-((1r,4s)-4-(((3-oxo-3,4-dihydro-2H-pyrazino [2,3-b][1,4]thiazin-6-yl)methyl)amino)cyclohexyl)ethyl)-1,4-dihydroquinoline-3-carboxylic acid]
MIC [1]: ≤ 0.1 µg/mL

COc1cnc2ccc(F)c(CNC3CCC(NCc4cnc5c(n4)NC(=O)CO5)CC3)c2n1.Cl [Formula (V) HCl salt, 6-((((1R,4R)-4-(((6-fluoro-3-methoxyquinoxalin-5-yl)methyl)amino)cyclohexyl)amino)methyl)-2H-pyrazino[2,3-b][1,4]oxazin-3(4H)-one, Hydrochloride]
MIC90 (citrobacter spp): ≤ 0.25 µg/mL
MIC90 (Burkholderia cepacia): ≤8
MIC90 (Serratia marcescens): ≤ 4 µg/mL
MIC90 (Providencia rettgeri): ≤ 0.5 µg/mL
MIC90 (Streptococcus agalactiae): ≤2 µg/mL
MIC90 (Yersinia pestis; Table 3 column A4 = Yersinia pestis): ≤0.12 µg/mL
MIC90 (Bacillus anthracis; Table 3 column B4 = Bacillus anthracis): ≤0.25 µg/mL
MIC90 (Francisella tularensis; Table 3 column C4 = Francisella tularensis): ≤0.5 µg/mL
MIC90 (Burkholderia mallei): ≤4 µg/mL
MIC90 [2]: ≤4 µg/mL
MIC (Bacteroides fragilis): ≤0.5 µg/mL
MIC (Bacteroides caccae): ≤4 µg/mL
MIC (Bacteroides ovatus): ≤2 µg/mL
MIC [3]: ≤1 µg/mL
H37Rv MIC [1]: ≤0.3 µg/mL

COc1cnc2ccc(F)c(CN[C@H]3CC[C@H](NCc4cnc5c(n4)NC(=O)CO5)CC3)c2n1 [Formula (V) free base, 6-((((1R,4R)-4-(((6-fluoro-3-methoxyquinoxalin-5-yl)methyl)amino)cyclohexyl)amino)methyl)-2H-pyrazino[2,3-b][1,4]oxazin-3(4H)-one]
MIC90 (Moraxella catarrhalis): < 0.016 µg/mL
MIC90 (Enterococcus faecalis; read-out: MIC90): ≤ 0.5 µg/mL
MIC90 (E. faecium; Enterococcus faecium, read-out: MIC90): ≤ 0.5 µg/mL
MIC [1]: ≤ 0.02 µg/mL

COc1cnc2ccc(F)c(CN[C@@H]3CC[C@@H](NCc4cnc5c(n4)NC(=O)CO5)C[C@@H]3O)c2n1.Cl [Formula (VI) HCl salt, 6-((((1R,3S,4R)-4-(((6-fluoro-3-methoxyquinoxalin-5-yl)methyl)amino)-3-hydroxycyclohexyl)amino)methyl)-2H-pyrazino[2,3-b][1,4]oxazin-3(4H)-one Hydrochloride]
MIC90 (Burkholderia cepacia): ≤8
MIC90 (Staphylococcus aureus): ≤ 0.125 µg/mL
MIC90 (Streptococcus pneumonia): ≤ 0.25 µg/mL
MIC90 (Streptococcus pyogenes): ≤ 0.063 µg/mL
MIC90 (Yersinia pestis; Yersinia pestis): ≤ 0.125 µg/mL
MIC90 (Bacillus anthracis; Bacillus anthracis): ≤ 0.25 µg/mL
MIC90 (Francisella tularensis; Francisella tularensis): ≤ 0.063 µg/mL
MIC [1]: ≤ 0.02 µg/mL

COc1ccc2ncc(=O)n(CCN3CC[C@@H](CNCc4ncc5c(n4)NC(=O)CO5)C3)c2n1 [Formula (VII) HCl salt, 2-({[((3S)-1-{2-[6-(methyloxy)-3-oxopyrido[2,3-b]pyrazin-4(3H)-yl]ethyl}-3-pyrrolidinyl)methyl]amino}methyl)-1H-pyrimido[5,4-b][1,4]oxazin-7(6H)-one]
MIC90 (Moraxella catarrhalis): < 0.016 µg/mL
MIC90 (Legionella pneumophila): ≤ 0.06 µg/mL
MIC90 (citrobacter spp): ≤ 0.5 µg/mL
MIC90 (Burkholderia cepacia): ≤16
MIC90 (Serratia marcescens): ≤ 2 µg/mL
MIC90 (Providencia rettgeri): ≤ 1 µg/mL
MIC90 (Enterococcus faecalis; read-out: MIC90): ≤ 0.5 µg/mL
MIC90 (E. faecium): ≤0.5 µg/mL
MIC90 (Yersinia pestis; Yersinia pestis): ≤ 0.12 µg/mL
MIC90 (Bacillus anthracis; Bacillus anthracis): ≤ 0.12 µg/mL
MIC90 (Francisella tularensis; Francisella tularensis): ≤ 0.03 µg/mL
MIC [1]: ≤ 0.3 µg/mL

COc1ccc2ncc(=O)n(CCN3CC[C@@H](CNCc4ncc5c(n4)NC(=O)CO5)C3)c2n1 [Formula (VII) free base, 2-({[((3S)-1-{2-[6-(methyloxy)-3-oxopyrido[2,3-b]pyrazin-4(3H)-yl]ethyl}-3-pyrrolidinyl)methyl]amino}methyl)-1H-pyrimido[5,4-b][1,4]oxazin-7(6H)-one]
MIC90 (Moraxella catarrhalis): < 0.016 µg/mL
MIC90 (Burkholderia cepacia): ≤8
MIC90 (Enterococcus faecalis): ≤0.25 µg/mL
MIC90 (E. faecium): ≤0.125 µg/mL
H37Rv MIC [1]: ≤0.16 µg/mL
